Data taken from paper PMC9032457, “Binding Interaction of Betulinic Acid to α-Glucosidase and Its Alleviation on Postprandial Hyperglycemia” (Molecules, 2022).
Like-named read-outs stand apart in the source and are kept apart here.

Key:
α-glucosidase [1] = biological target: T1, α-glucosidase (Saccharomyces cerevisiae, UniProt P53341); set-up: method as in PMID 29030193; settings: literature; cited from earlier work
T1 construct: purchased Sigma-Aldrich

α-glucosidase [2] = biological target: T1, α-glucosidase; assay: Combination of acarbose with BA on α-glucosidase activity; assay type: biochemical, yeast; set-up: key to Vab (observed residual activity) / Vc (expected residual activity): fraction of remaining α-glucosidase activity (0–1)
Protocol: The method was the same as the α-glucosidase activity assay. […] The value for BA (Vb) was also defined. If the inhibitory effects on α-glucosidase of the two compounds are independent, the final remnant activity fraction of α-glucosidase (Vc) is equal to VaVb when the reaction is sequentially treated by those two compounds. […] The types of interaction were determined by the relationship between Vab and Va, Vb, or Vc.

[3] = tested on: postprandial blood glucose level; assay: Oral glucose tolerance test (OGTT); assay type: in vivo, BALB/c mice; settings: normal mice, oral BA 20 mg/kg or acarbose 7 mg/kg; glucose 2 g/kg
Protocol: (§1) The dynamic characteristics of postprandial blood glucose level were evaluated by ODTT and OGTT, which were performed as described previously. BALB/c mice (5 weeks old, male) were purchased from Guangdong Medical Laboratory Animal Center (Guangzhou, China). The animal study was approved by the Committee on the Ethics of Animal Experiments of the Institute of Microbiology, Guangdong Academy of Science (GT-IACUC202012102). After one week of acclimation, the mice were randomly divided into a control group, BA-treated group and acarbose-treated group (n = 8), respectively. […] After 30 min, all the mice were intragastrically administered with the mixed maltose-sucrose solution (2 g/kg). In total, 10 μL of blood was collected by tail cut and glucose levels at 0, 30, 60, 90 and 120 min was measured by glucometer (Roche ACCU-CHEK Performa Nano), respectively. Two days later, all the mice were give the oral glucose tolerance test (OGTT), which was performed as the ODTT modus. The oral dose of glucose was also 2 g/kg.

α-glucosidase [4] = biological target: T1, α-glucosidase; assay: α-Glucosidase inhibition assay (pNPG substrate); assay type: biochemical
Protocol: α-Glucosidase inhibition was assayed according to the methods described previously. Briefly, 40 μL phosphate buffer (0.1 M, pH = 6.8), 10 μL BA solutions and 50 μL α-glucosidase solution (0.4 U/mL) were added into 96-well plates and mixed thoroughly. After being incubated at 37 °C for 10 min, 50 μL pNPG solution (2.5 mM) was added to initiate the reaction and stayed at 37 °C for 30 min. Then, 40 μL Na2CO3 solution (1.0 M) was added to terminate the reaction. A microplate reader was employed to read the absorbance at 405 nm. The inhibition rates (%) = [(ODcontrol − ODcontrol blank) − (OD test − ODtest blank)]/(ODcontrol − ODcontrol blank) × 100%.

α-glucosidase [5] = biological target: T1, α-glucosidase; assay: SPR assay (Biacore T200); assay type: binding; settings: 1:1 Langmuir model, enzyme immobilized on CM5 chip, read-out: equilibrium dissociation constant (KD)
Protocol: SPR analysis was applied on a Biacore T200 system (GE Healthcare, Uppsala, Sweden). α-Glucosidase solution (50 μg/mL) was prepared and stayed at room temperature for 30 min. Then, the activated α-glucosidase was immobilized on a CM5 sensor chip pre-activated by EDC/NHS with an amine coupling kit at a flow rate of 10 μL/min. BA solution of different concentrations containing 5% DMSO was serially injected over α-glucosidase coated surface. PBS was used as the mobile phase with a flow rate of 30 μL/min. According to the 1:1 Langmuir model, the equilibrium dissociation constant (KD) was calculated by the Biacore evaluation software. (https://www.cytivalifesciences.com/en/us/shop/protein-analysis/spr-label-free-analysis/software/biacore-insight-evaluation-software-p-23528, accessed on 26 October 2016).

α-glucosidase [6] = biological target: T1, α-glucosidase; set-up: method as in PMID 29902001, doi:10.1016/j.indcrop.2015.08.031, PMID 33876656; settings: in vitro; read-out: IC50 against α-glucosidase, previous research; cited from earlier work
α-glucosidase [7] = biological target: T1, α-glucosidase; assay: Enzyme inhibition kinetics (Lineweaver-Burk plot); assay type: biochemical
Protocol: α-Glucosidase inhibition kinetics was studied as previously reported. BA was set with the concentrations of 0, 12 and 24 μM for 0.2 U/mL α-glucosidase. A series of concentrations of pNPG were used as substrates. The inhibition type was determined by using the Lineweaver–Burk plots and its secondary equations. The kinetic parameters (Vmax and Ki) were evaluated by the nonlinear regression of the Michaelis–Menton equation with GraphPad Prism 7.0. (https://www.graphpad.com/support/prism-7-updates/, accessed on 12 May 2021).

[8] = tested on: postprandial blood glucose level; assay: Oral disaccharide tolerance test (ODTT); assay type: in vivo, BALB/c mice; settings: normal mice, oral BA 20 mg/kg or acarbose 7 mg/kg; for postprandial blood glucose levels vs control: after mixed maltose-sucrose, p < 0.01; for blood glucose level at 30 min: mixed maltose-sucrose 2 g/kg, control 12.58 ± 0.47
Protocol: as §1

T1 sequence (P53341 whole entry): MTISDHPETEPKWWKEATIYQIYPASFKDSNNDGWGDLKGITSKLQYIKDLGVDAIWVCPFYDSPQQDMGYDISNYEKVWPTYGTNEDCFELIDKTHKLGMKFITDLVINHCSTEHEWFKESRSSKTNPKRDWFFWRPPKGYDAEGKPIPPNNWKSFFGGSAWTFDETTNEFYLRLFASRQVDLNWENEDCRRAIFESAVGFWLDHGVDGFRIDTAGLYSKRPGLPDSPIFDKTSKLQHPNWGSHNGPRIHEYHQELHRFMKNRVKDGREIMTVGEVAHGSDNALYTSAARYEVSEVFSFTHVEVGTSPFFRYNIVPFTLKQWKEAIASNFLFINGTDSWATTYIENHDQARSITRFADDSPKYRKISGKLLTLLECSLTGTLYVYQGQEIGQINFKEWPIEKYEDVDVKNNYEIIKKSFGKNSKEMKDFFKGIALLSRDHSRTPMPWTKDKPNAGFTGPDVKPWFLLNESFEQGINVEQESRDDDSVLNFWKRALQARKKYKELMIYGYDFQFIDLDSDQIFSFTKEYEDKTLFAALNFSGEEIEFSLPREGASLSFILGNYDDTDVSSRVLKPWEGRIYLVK

For `C[C@H]1[C@H](C)CC[C@]2(C(=O)O)CC[C@]3(C)C(=CC[C@@H]4[C@@]5(C)CC[C@H](O)C(C)(C)[C@@H]5CC[C@]43C)[C@H]12` [ursolic acid], the inhibition type (α-glucosidase [1]) is listed as “non-competitive”.

For `C=C(C)[C@@H]1CC[C@]2(C(=O)O)CC[C@]3(C)[C@H](CC[C@@H]4[C@@]5(C)CC[C@H](O)C(C)(C)[C@@H]5CC[C@]43C)[C@@H]12` [BA, betulinic acid], the Interaction (α-glucosidase [2]; BA 5 μM + acarbose 600 μM) was “SY (Vab − Vc < −0.1 is considered as the synergistic (SY) interaction between BA and acarbose)”, the “Vab (observed residual activity)” value (α-glucosidase [2]; BA 5 μM + acarbose 600 μM) was 0.47 and the “Vab − Vc” value (α-glucosidase [2]; BA 5 μM + acarbose 600 μM) was −0.12. For the same molecule, the “Vc (expected residual activity)” value (α-glucosidase [2]; BA 5 μM + acarbose 600 μM) was 0.59, the Interaction (α-glucosidase [2]; BA 5 μM + acarbose 800 μM) was “SY (Vab − Vc < −0.1 is considered as the synergistic (SY) interaction between BA and acarbose)” and the “Vab (observed residual activity)” value (α-glucosidase [2]; BA 5 μM + acarbose 800 μM) was 0.42. The “Vab − Vc” value (α-glucosidase [2]; BA 5 μM + acarbose 800 μM) was −0.15, the “Vc (expected residual activity)” value (α-glucosidase [2]; BA 5 μM + acarbose 800 μM) was 0.56 and the Interaction (α-glucosidase [2]; BA 5 μM + acarbose 1000 μM) was “SY (Vab − Vc < −0.1 is considered as the synergistic (SY) interaction between BA and acarbose)”. For the same molecule, the “Vab (observed residual activity)” value (α-glucosidase [2]; BA 5 μM + acarbose 1000 μM) was 0.41, the “Vab − Vc” value (α-glucosidase [2]; BA 5 μM + acarbose 1000 μM) was −0.13 and the “Vc (expected residual activity)” value (α-glucosidase [2]; BA 5 μM + acarbose 1000 μM) was 0.53. For the same molecule, the Interaction (α-glucosidase [2]; BA 10 μM + acarbose 600 μM) was “SY (Vab − Vc < −0.1 is considered as the synergistic (SY) interaction between BA and acarbose)”, the “Vab (observed residual activity)” value (α-glucosidase [2]; BA 10 μM + acarbose 600 μM) was 0.39 and the “Vab − Vc” value (α-glucosidase [2]; BA 10 μM + acarbose 600 μM) was −0.18. The “Vc (expected residual activity)” value (α-glucosidase [2]; BA 10 μM + acarbose 600 μM) was 0.57, the Interaction (α-glucosidase [2]; BA 10 μM + acarbose 800 μM) was “SY (Vab − Vc < −0.1 is considered as the synergistic (SY) interaction between BA and acarbose)” and the “Vab (observed residual activity)” value (α-glucosidase [2]; BA 10 μM + acarbose 800 μM) was 0.36. The “Vab − Vc” value (α-glucosidase [2]; BA 10 μM + acarbose 800 μM) was −0.18, the “Vc (expected residual activity)” value (α-glucosidase [2]; BA 10 μM + acarbose 800 μM) was 0.54 and the Interaction (α-glucosidase [2]; BA 10 μM + acarbose 1000 μM) was “SY (Vab − Vc < −0.1 is considered as the synergistic (SY) interaction between BA and acarbose)”. For the same molecule, the “Vab (observed residual activity)” value (α-glucosidase [2]; BA 10 μM + acarbose 1000 μM) was 0.34, the “Vab − Vc” value (α-glucosidase [2]; BA 10 μM + acarbose 1000 μM) was −0.17 and the “Vc (expected residual activity)” value (α-glucosidase [2]; BA 10 μM + acarbose 1000 μM) was 0.51. The Interaction (α-glucosidase [2]; BA 15 μM + acarbose 600 μM) was “SY (Vab − Vc < −0.1 is considered as the synergistic (SY) interaction between BA and acarbose)”, the “Vab (observed residual activity)” value (α-glucosidase [2]; BA 15 μM + acarbose 600 μM) was 0.32 and the “Vab − Vc” value (α-glucosidase [2]; BA 15 μM + acarbose 600 μM) was −0.18. For the same molecule, the “Vc (expected residual activity)” value (α-glucosidase [2]; BA 15 μM + acarbose 600 μM) was 0.50, the Interaction (α-glucosidase [2]; BA 15 μM + acarbose 800 μM) was “SY (Vab − Vc < −0.1 is considered as the synergistic (SY) interaction between BA and acarbose)” and the “Vab (observed residual activity)” value (α-glucosidase [2]; BA 15 μM + acarbose 800 μM) was 0.29. The “Vab − Vc” value (α-glucosidase [2]; BA 15 μM + acarbose 800 μM) was −0.18, the “Vc (expected residual activity)” value (α-glucosidase [2]; BA 15 μM + acarbose 800 μM) was 0.48 and the Interaction (α-glucosidase [2]; BA 15 μM + acarbose 1000 μM) was “SY (Vab − Vc < −0.1 is considered as the synergistic (SY) interaction between BA and acarbose)”. For the same molecule, the “Vab (observed residual activity)” value (α-glucosidase [2]; BA 15 μM + acarbose 1000 μM) was 0.28, the “Vab − Vc” value (α-glucosidase [2]; BA 15 μM + acarbose 1000 μM) was −0.16 and the “Vc (expected residual activity)” value (α-glucosidase [2]; BA 15 μM + acarbose 1000 μM) was 0.45. The “effect on blood glucose level after oral glucose” value [3] was “no significant effect”, the “fold stronger than acarbose (IC50)” value (α-glucosidase [4]; BA IC50 vs acarbose IC50) was “approximately 50 fold” and the IC50 (α-glucosidase [4]; pNPG 2.5 mM, pH 6.8, 37 °C, read-out: IC50 against α-glucosidase) was 16.8 ± 1.16 µM. For the same molecule, the Kd (α-glucosidase [5]) was 55.3 µM, the IC50 (α-glucosidase [6]) was 10.6 to 83.6 µM and the inhibition type (α-glucosidase [7]; Lineweaver-Burk plot, BA 0, 12 and 24 μM, 0.2 U/mL enzyme) was “non-competitive”. For the same molecule, the Ki (α-glucosidase [7]; from secondary plot of slope vs. BA, read-out: inhibition kinetic constant (Ki)) was 38.5 µM, the “postprandial blood glucose levels vs control” value [8] was “significantly suppressed” and the “blood glucose level at 30 min” value [8] was 10.46 ± 0.31 mM.

For `CC1(C)CC[C@]2(C(=O)O)CC[C@]3(C)C(=CC[C@@H]4[C@@]5(C)CC[C@H](O)C(C)(C)[C@@H]5CC[C@]43C)[C@@H]2C1` [oleanolic acid], the inhibition type (α-glucosidase [1]) is given as “non-competitive”.

With `C[C@H]1O[C@H](O[C@H]2[C@H](O)[C@@H](O)[C@@H](O[C@H]3[C@H](O)[C@@H](O)C(O)O[C@@H]3CO)O[C@@H]2CO)[C@H](O)[C@@H](O)[C@@H]1N[C@H]1C=C(CO)[C@@H](O)[C@H](O)[C@H]1O` (stereo partly drawn) [acarbose, reference compound] the “effect on blood glucose level after oral glucose” value [3] was “no significant effect”, the “postprandial blood glucose levels vs control” value [8] was “significantly suppressed” and the “blood glucose level at 30 min” value [8] was 10.76 ± 0.39 mM. For the same molecule, the inhibition type (α-glucosidase [1]) was “competitive”.
